Patent publication US8680094B2, “1, 4-benzoxazine compounds and derivatives thereof as therapeutic drugs for the treatment of neurodegenerative conditions” (Board of Regents, The University of Texas System, priority 2008, dated 2014)

Experiments:
[1] = test system: cerebellar granule neurons; assay: Effect of inhibition of signal transduction pathways on neuroprotection by 1,4-benzoxazines in LK-treated cerebellar granule neurons; assay type: cell-based, rat; details: LK medium, 24 h; for effect of pharmacological inhibition of the MEK-ERK and PI-3K-Akt pathways on neuroprotective action: PD98059 40 μM, U0126 10 μM, Wortmannin 100 nm, Akt inhibitor-X 5 μM, DAPI
Method: Cultures of cerebellar granule neurons were switched to LK medium, LK medium containing of HSB-13, or LK medium containing HSB-13 and either PD98059 (40 μM), U0126 (10 μM), Wortmannin ([…]), Akt inhibitor-X (5 μM), KN-62 (10 μM), H89 (10 μM) and TSA (1 μM). Viability was quantified 24 h later by DAPI staining. The results were normalized to viability in control cultures which were switched to HK medium;
The Raf-MEK-ERK and P1-3 kinase-Akt signaling are two well-established and powerful anti-apoptotic pathways in mammalian cells that mediate the protective effects of a number of neurotrophic polypeptides, pharmacological agents, and neuroprotective compounds (D'Mello and Chin, 2005; Hetman et al., 2006). To determine whether either of these pathways was involved in the neuroprotective effect of 1,4-benzoxazines the inventors studied whether the pharmacological inhibition of these pathways affected their neuroprotective efficacy. […] Similarly, none of the compounds tested (the PI-3 kinase inhibitor, wortmannin, the Akt inhibitor X, or a commercially available inhibitor of Akt) reduced the ability of HSB-13 to protect neurons against LK-induced apoptosis (FIG. 3). […] As observed for HSB-13, pharmacological inhibition of the MEK-ERK and PI-3K-Akt pathways had no effect on the neuroprotective actions of ASK-2a or HSB-22.
Treatment of cerebellar granule neurons with HK activates calcium-calmodulin kinase (CaMK) and inhibition of CaMK with pharmacological inhibitors such as KN-62 inhibits HK-mediated survival (See et al., 2001; Linseman et al., 2003; Morrison et al., 2006). […] The present inventors recognized that several investigators have shown that cyclic AMP analogs and pharmacological activators of protein kinase A promote survival of cerebellar granule neurons as well as other neuronal types in the absence of other survival-promoting stimuli (Rydel and Greene, 1988; D'Mello et al., 1993; Hanson et al., 1998). PKA-mediated neuronal survival is blocked by treatment with H89, a potent and selective PICA inhibitor (Li et al., 2000; Bhave and Hoffman, 2004). […] The inventors have previously reported that histone deacetylase inhibitors such as trichostatin A block the ability of HK to maintain the survival of cerebellar granule neurons (Salminen et al., 1998; Boutillier et al., 2002; Morrison et al., 2006).

phospho-MEK = assay: Western blot of signaling proteins in LK-treated cerebellar granule neurons: phospho-MEK; assay type: cell-based, rat; details: LK medium with compound, 3 h
Method: Cultures of cerebellar granule neurons were switched to HK medium, LK medium, or LK medium containing of HSB-13, HSB-22, or ASK-2a for 3 h. Total cell lysates were prepared and analyzed by Western blotting using antibodies against phospho-Akt (Ser473), phospho-MEK, phospho-ERK, and phospho-GSK3β.
The culture medium was removed and the cells were washed twice with ice-cold phosphate-buffered saline (PBS) and lysed in lysis buffer [1% Triton, 20 mM Tris-HCl (pH 7.5), 150 mM NaCl, 1 mM Na2EDTA, 1 mM EGTA, 2.5 mM sodium pyrophosphate, 1 mM beta-glycerophosphate, 1 mM Na3VO4, 1 μg/mL leupeptin and 1 protease inhibitor mixture]. Protein concentrations were measured and normalized using Bradford protein assay reagent (Bio-Rad, Hercules, Calif., USA). Following normalization, 40 μg of protein was subjected to Western blotting. Immunoreactivity was examined by enhanced chemiluminescence (Amersham Bioscience, Piscataway, N.J., USA).
Activation of MEK, ERK and Akt requires their phosphorylation, which can be detected using phospho-specific antibodies. As previously reported by the inventors and others (Chin et al., 2004; Johnson et al., 2005; Majdzadeh et al., 2008), MEK and ERK phosphorylation decreases following LK treatment of cerebellar granule neurons. This decrease is not prevented by HSB-13, HSB-22, or ASK-2a (FIG. 4). […] This is also not affected by treatment with ASK-2a or HSB-22 (FIG. 4).

HT-22 cells = assay: HCA-induced toxicity in HT-22 neuroblastoma cells; assay type: cell-based, mouse
Method: FIGS. 6A and 6B show the effects of HSB-13 on HT-22 cells and the quantification of cell death. […] HT-22 cells were treated with no additives (Un), 1.5 mM HCA, or 1.5 mM HCA plus 25 μM HSB-13, 25 μM ASK-2a, and 25 μM HSB-22. In FIG. 6A, the appearance of the cultures at 24 h after treatment was visualized by phase-contrast microscopy (Phase). […] Viability was expressed as % of untreated cultures (control);
HT-22 cells were treated with no additives (Control), 2 mM HCA, or 2 mM HCA+25 μM HSB-13. The appearance of the cultures at 24 h after treatment is shown.
The mouse HT-22 neuroblastoma cell line was purchased from ATCC (Manassas, Va., USA) and cultured in Dulbecco's modified Eagle's medium (DMEM) with 4.5 g/L glucose (without sodium pyruvate) supplemented with 10% FBS, 100 units/ml penicillin and 100 μg/ml streptomycin. Cultures were plated at ˜30% confluence for HCA treatment. HCA was made as 150 mM stock solution adjusted to pH 7.5 and used at a final concentration of 1.5 mM.
Treatment of the mouse neuroblastoma HT-22 cell line with homocysteic acid (HCA) induces apoptosis through glutathione depletion and oxidative stress (Murphy et al. 1990; Ratan et al. 1994a, 1994b). The inventors studied whether HSB-13, HSB-22, and ASK-2a were protective in this paradigm of oxidative stress-induced neuronal death. HSB-13 prevents HCA-induced cell death. […] Thus, HSB-13, but not ASK-2a and HSB-22, is protective against oxidative stress-induced neuronal death.
Analysis in cultured cerebellar granule neurons identified HSB-13 as one with strong neuroprotective efficacy. We therefore selected HSB-13 to examine whether its protective effects extended to other neuronal types and apoptotic stimuli. Treatment of the hippocampally-derived neuroblastoma cell line, HT-22, with homocysteic acid (HCA) causes oxidative stress due to glutathione depletion leading to apoptosis (Murphy et al., 1990; Ratan et al., 1994a and 1994b).

[2] = any of the three doses examined (data not shown)

Structure (SMILES) | effect of pharmacological inhibition of the MEK-ERK and PI-3K-Akt pathways on neuroprotective action [1] | LK-induced decrease of MEK phosphorylation (phospho-MEK) | protection against HCA-induced cell death (HT-22 cells; [2]) | neuroprotection in the presence of H89 ([1]; H89 10 μM (PKA inhibitor)) | neuroprotection in the presence of KN-62 ([1]; KN-62 10 μM (CaMK inhibitor)) | neuroprotection in the presence of TSA ([1]; TSA 1 μM (histone deacetylase inhibitor)) | protection against HCA-induced cell death (HT-22 cells; 1.5 mM HCA, 5 μM compound, 24 h) | protection against HCA-induced cell death (HT-22 cells; 1.5 mM HCA, 25 μM compound, 24 h) | protection against HCA-induced cell death (HT-22 cells; 2 mM HCA, 5 uM compound) | HCA-induced cell death (HT-22 cells; 2 mM HCA, 25 uM compound, 24 h (FIG. 9))
O=C1Nc2ccccc2OC1=Cc1cc(Br)c(O)c(Br)c1 [ASK-2a] | no effect | not prevented | failed to protect |  |  |  |  |  |  | 
Nc1ccc2c(c1)NC(=O)/C(=C/c1cc(Br)c(O)c(Br)c1)O2 [HSB-13, (Z)-6-amino-2-(3,′5′-dibromo-4′-hydrozybenzylidene)-2H-benzo[b][1,4]oxazin-3(4H)-one] | no effect | not prevented |  | no effect | not, however, reduced | did not inhibit | robust protection | highest protection | not protective | prevented
O=C1Nc2cc(Cl)ccc2O/C1=C\c1cc(Br)c(O)c(Br)c1 [HSB-22] | no effect | not prevented | failed to protect |  |  |  |  |  |  | 
